Tested on: PDC 899932-113-R3-J6 complex spheroid viability
Assay: Anticancer human tumor 899932-113-R3-J6-PDC patient-derived melanoma cell line growth inhibition [RAS]
Conditions: for IC50: curve of first compound; for viability, T/C: stronger effect = lower value
Text: RAS pathway inhibitors in Combinations in Complex Spheroids
A high-throughput screen of multi-cell type tumor spheroids was designed to identify active combinations of RAS pathway inhibitors and targeted small molecules. Complex spheroids include a stromal component modeled by human endothelial cells (HUVEC) and fibroblasts modeled by human mesenchymal stem cells (MSCs). The concentration ranges selected for each drug and investigational agent were based upon clinically achievable concentrations if the clinical Cmax of the agent was known.
Compounds. The drugs and investigational agents: abemaciclib (NSC768073), cobimetinib (NSC768068), divarasib (GDC6063, NSC841802), docetaxel (NSC628503), GDC-1971 (RLY-1971, NSC841576), gemcitabine (NSC613327), inavolisib (NSC800729), ipatasertib (NSC767898), KB-0742 (NSC834161), MRTX-1133 (NSC836407), osimertinib (NSC779217), RMC-4630 (NSC839698), RMC-6236 (NSC851965), RMC-6291 (NSC852671), Ro-3306 (NSC812927), sapanisertib (NSC764658), SN-38 (NSC673596), staurosporine (NSC755774), SY5609 (NSC837396), and tovorafenib (DAY101, NSC766906), were obtained from the National Cancer Institute (NCI) Developmental Therapeutics Program Chemical Repository. The FDA-approved anticancer drug set is available from the NCI Developmental Therapeutics Program. […] The stock solutions were prepared in dimethyl sulfoxide (DMSO, Sigma-Aldrich, St. Louis, MO, cat. D2650) at 800-fold the tested concentration and stored at -70 degrees C prior to their use. All drugs and investigational agents were tested over a range starting from a high concentration at or near the clinical Cmax and decreasing in half-log increments. If the clinical Cmax for an agent had not been determined, the highest concentration tested was 10 microM.
Cell Culture. All cells were maintained in an incubator at 37 degrees C and 5% CO2 with 95% humidity. The PDC lines were cultured according to standard operating procedures established by the NCI PDMR. All PDCs were thawed and cultured in Matrigel-coated flasks prepared with a working solution of 1X Ham's F-12 nutrient mix, without supplementation (Invitrogen, Waltham, MA, cat. 11765054), 100 U/mL penicillin-streptomycin (Invitrogen, cat. 15140122), and 2.5% Matrigel (Corning Inc., Corning, NY, cat. 354248) for the first three passages. The 362531-283-R-J2-PDC and 782815-120-R-J1-PDC lines were cultured in 6C/Colon 1B media, which includes advanced DMEM/F-12 (Thermo Fisher Scientific, cat. 12634028), 10 mM HEPES (Thermo Fisher Scientific, cat. 15630080), 1X GlutaMAX supplement (Thermo Fisher Scientific, cat. 35050061), 0.1 mg/mL primocin (InvivoGen, San Diego, CA, cat. ant-pm-2), 10% defined fetal bovine serum, heat inactivated (HyClone Laboratories Inc., Logan, UT, cat. SH30070.03HI), 50% L-WRN conditioned media (ATCC, cat. CRL-3276), 1.25 mM N-Acetyl-L-cysteine (Sigma-Aldrich, cat. A9165), 10 mM nicotinamide (Sigma-Aldrich, cat. N0636), 1X B-27 supplement (Thermo Fisher Scientific, cat. 17504044), 1X N-2 supplement (Thermo Fisher Scientific, cat. 17502048), 50 ng/mL human EGF (Thermo Fisher Scientific, cat. PHG0311), and 10 microM Y-27632 dihydrochloride (Tocris Bioscience, cat. 1254). The K12877-001-R-J1-PDC line was cultured in 6I media, which includes all 6C/Colon 1B media plus 10 ng/mL human FGF-10 (PeproTech, cat. 100-26), 1 ng/mL human FGF-2 (PeproTech, cat. 100-18B), 1 µM prostaglandin E2 (Tocris Bioscience, cat. 2296), […] hydrocortisone (Sigma-Aldrich, cat. H4001), and […] bovine insulin (Sigma-Aldrich, cat. I6634). The K86415-001-R-J1-PDC line was cultured in 6D media, which includes all 6C/Colon 1B media components minus the L-WRN conditioned media. The 485176-168-R4-J1-PDC was cultured in PANC media, which includes all 6C/Colon 1B media plus 100 ng/mL human FGF-10 (PeproTech, cat. 100-26), 500 nM SB-431542 (Selleckchem, cat. S1067), and 10 nM gastrin (Tocris Bioscience, cat. 3006). […]

[1] = second compound 0.0316 µM, first compound 0.0316 µM
[2] = second compound 0.0316 µM, first compound 0.1 µM
[3] = second compound 0.0316 µM, first compound 0.316 µM
[4] = second compound 0.0316 µM, first compound 1 µM
[5] = second compound 0.1 µM, first compound 0.0316 µM
[6] = second compound 0.1 µM, first compound 0.1 µM
[7] = second compound 0.1 µM, first compound 0.316 µM
[8] = second compound 0.1 µM, first compound 1 µM
[9] = second compound 0.316 µM, first compound 0.0316 µM
[10] = second compound 0.316 µM, first compound 0.1 µM
[11] = second compound 0.316 µM, first compound 0.316 µM
[12] = second compound 0.316 µM, first compound 1 µM
[13] = second compound 1 µM, first compound 0.0316 µM
[14] = second compound 1 µM, first compound 0.1 µM
[15] = second compound 1 µM, first compound 0.316 µM
[16] = second compound 1 µM, first compound 1 µM
[17] = second compound 3.16 µM, first compound 0.0316 µM
[18] = second compound 3.16 µM, first compound 0.1 µM
[19] = second compound 3.16 µM, first compound 0.316 µM
[20] = second compound 3.16 µM, first compound 1 µM
[21] = second compound 10 µM, first compound 0.0316 µM
[22] = second compound 10 µM, first compound 0.1 µM
[23] = second compound 10 µM, first compound 0.316 µM
[24] = second compound 10 µM, first compound 1 µM
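For viability, T/C in this document: spheroids exposed to agents for seven days before readout; 100% = DMSO vehicle control wells.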

CC(Nc1ccc2c(c1)OCCn1cc(N3C(=O)OCC3C(F)F)nc1-2)C(N)=O (centres undefined) + C#Cc1c(F)ccc2cc(O)cc(-c3ncc4c(N5CC6CCC(C5)N6)nc(OCC56CCCN5CC(F)C6)nc4c3F)c12
IC50 (second compound 0.0316 µM): 1780 nM
IC50 (second compound 0.1 µM): 2610 nM
IC50 (second compound 0.316 µM): 2440 nM
IC50 (second compound 1 µM): 2240 nM
IC50 (second compound 3.16 µM): 4560 nM
IC50 (second compound 10 µM): 2760 nM
viability, T/C [1]: 88.4%
viability, T/C [2]: 87.2%
viability, T/C [3]: 58.2%
viability, T/C [4]: 58%
viability, T/C (second compound 0.0316 µM, first compound 3.16 µM): 47.4%
viability, T/C (second compound 0.0316 µM, first compound 10 µM): 30.6%
viability, T/C [5]: 88.8%
viability, T/C [6]: 78.6%
viability, T/C [7]: 70.1%
viability, T/C [8]: 57.3%
viability, T/C (second compound 0.1 µM, first compound 3.16 µM): 51.7%
viability, T/C (second compound 0.1 µM, first compound 10 µM): 35.1%
viability, T/C [9]: 97.7%
viability, T/C [10]: 83.3%
viability, T/C [11]: 66%
viability, T/C [12]: 63.5%
viability, T/C (second compound 0.316 µM, first compound 3.16 µM): 49.2%
viability, T/C (second compound 0.316 µM, first compound 10 µM): 33.8%
viability, T/C [13]: 93%
viability, T/C [14]: 76%
viability, T/C [15]: 64.9%
viability, T/C [16]: 61.5%
viability, T/C (second compound 1 µM, first compound 3.16 µM): 44.2%
viability, T/C (second compound 1 µM, first compound 10 µM): 39.8%
viability, T/C [17]: 101%
viability, T/C [18]: 76.6%
viability, T/C [19]: 71.4%
viability, T/C [20]: 65%
viability, T/C (second compound 3.16 µM, first compound 3.16 µM): 60.9%
viability, T/C (second compound 3.16 µM, first compound 10 µM): 38%
viability, T/C [21]: 102%
viability, T/C [22]: 90%
viability, T/C [23]: 70%
viability, T/C [24]: 63.9%
viability, T/C (second compound 10 µM, first compound 3.16 µM): 52.5%
viability, T/C (second compound 10 µM, first compound 10 µM): 32.5%

O=C(c1ccc(F)c(F)c1Nc1ccc(I)cc1F)N1CC(O)([C@@H]2CCCCN2)C1 + C#Cc1c(F)ccc2cc(O)cc(-c3ncc4c(N5CC6CCC(C5)N6)nc(OCC56CCCN5CC(F)C6)nc4c3F)c12
IC50 (second compound 0.0316 µM): 8.97 nM
IC50 (second compound 0.1 µM): 10.1 nM
IC50 (second compound 0.316 µM): 12.1 nM
IC50 (second compound 1 µM): 10.9 nM
IC50 (second compound 3.16 µM): 10.8 nM
IC50 (second compound 10 µM): 9.02 nM
viability, T/C (second compound 0.0316 µM, first compound 0.00316 µM): 84.7%
viability, T/C (second compound 0.0316 µM, first compound 0.01 µM): 46.4%
viability, T/C [1]: 7.85%
viability, T/C [2]: 3.11%
viability, T/C [3]: 3.11%
viability, T/C [4]: 1.68%
viability, T/C (second compound 0.1 µM, first compound 0.00316 µM): 70.8%
viability, T/C (second compound 0.1 µM, first compound 0.01 µM): 50.3%
viability, T/C [5]: 7.58%
viability, T/C [6]: 3.19%
viability, T/C [7]: 2.68%
viability, T/C [8]: 1.61%
viability, T/C (second compound 0.316 µM, first compound 0.00316 µM): 77.1%
viability, T/C (second compound 0.316 µM, first compound 0.01 µM): 58.5%
viability, T/C [9]: 6.51%
viability, T/C [10]: 5.25%
viability, T/C [11]: 2.94%
viability, T/C [12]: 1.38%
viability, T/C (second compound 1 µM, first compound 0.00316 µM): 83.2%
viability, T/C (second compound 1 µM, first compound 0.01 µM): 53.4%
viability, T/C [13]: 7.2%
viability, T/C [14]: 3.22%
viability, T/C [15]: 2.12%
viability, T/C [16]: 2.67%
viability, T/C (second compound 3.16 µM, first compound 0.00316 µM): 77.6%
viability, T/C (second compound 3.16 µM, first compound 0.01 µM): 53.1%
viability, T/C [17]: 8.19%
viability, T/C [18]: 3.45%
viability, T/C [19]: 2.09%
viability, T/C [20]: 3.3%
viability, T/C (second compound 10 µM, first compound 0.00316 µM): 91.4%
viability, T/C (second compound 10 µM, first compound 0.01 µM): 46%
viability, T/C [21]: 8.65%
viability, T/C [22]: 6.24%
viability, T/C [23]: 2.33%
viability, T/C [24]: 2.35%
